Data taken from ChEMBL document CHEMBL1150281, “Oleanane-type triterpenes from the flowers and roots of Saussurea muliensis” (2008).

Tests used:
Format in all cases: functional
[1] = system: Escherichia coli; test: Antimicrobial activity against Escherichia coli ATCC 25922
[2] = system: Bacillus cereus; test: Antimicrobial activity against Bacillus cereus
[3] = system: Staphylococcus aureus; test: Antimicrobial activity against Staphylococcus aureus ATCC 25923
[4] = system: Candida albicans; test: Antimicrobial activity against Candida albicans

Measured: MIC

CC(=O)O[C@@H]1CC[C@]2(C)[C@H]3CC=C4[C@@H]5C[C@](O)(CO)[C@H](O)[C@H](OC(C)=O)[C@]5(C)CC[C@@]4(C)[C@]3(C)CC[C@H]2C1(C)C
> 50 mg/L: all assays above

CC1(C)[C@H](OC(=O)/C=C/c2ccc(O)c(O)c2)CC[C@]2(C)[C@H]3CC=C4[C@@H]5C[C@@](C)(C(=O)O)CC[C@]5(C)CC[C@@]4(C)[C@]3(C)CC[C@@H]12
> 50 mg/L: all assays above

CCCCCCCCCCCCCCCC(=O)OC[C@@]1(O)C[C@H]2C3=CC[C@@H]4[C@@]5(C)CC[C@@H](OC(C)=O)C(C)(C)[C@@H]5CC[C@@]4(C)[C@]3(C)CC[C@@]2(C)[C@@H](OC(C)=O)[C@H]1O
> 50 mg/L: all assays above

CC1(C)[C@@H](O)CC[C@]2(C)[C@H]3CC=C4[C@@H]5C[C@@](C)(C(=O)O)C[C@H](O)[C@]5(C)CC[C@@]4(C)[C@]3(C)CC[C@@H]12
> 50 mg/L: all assays above

CC1(C)[C@H](OC(=O)/C=C/c2ccc(O)cc2)CC[C@]2(C)[C@H]3CC=C4[C@@H]5C[C@@](C)(C(=O)O)CC[C@]5(C)CC[C@@]4(C)[C@]3(C)CC[C@@H]12
> 50 mg/L: all assays above

CO[C@]1(CO)C[C@H]2C3=CC[C@@H]4[C@@]5(C)CC[C@@H](OC(C)=O)C(C)(C)[C@@H]5CC[C@@]4(C)[C@]3(C)CC[C@@]2(C)[C@@H](OC(C)=O)[C@H]1O
> 50 mg/L: all assays above
